PubChem BioAssay (NCI)
“And” between values parts separate entries of the source, which are not always exact repeats. Equal values may be shown once.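 1) Cells in 96-well plates. 2) Compound, 48 h, 5 concentrations. 3) Linear interpolation between surrounding doses. 4) Unreached endpoint = highest concentration. GI50 marks 50% less growth. TGI marks complete inhibition of growth.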

Key:
Test in all cases: NCI tumour cell line growth inhibition, 48 h
786-0 renal = test system: 786-0 renal
COLO 205 colon = test system: COLO 205 colon
HCC-2998 colon = test system: HCC-2998 colon
HCT-15 colon = test system: HCT-15 colon
M14 melanoma = test system: M14 melanoma
MDA-MB-231 breast = test system: MDA-MB-231 breast
MDA-N = test system: MDA-N
NCI-H23 lung = test system: NCI-H23 lung
RPMI-8226 leukemia = test system: RPMI-8226 leukemia
SK-MEL-2 melanoma = test system: SK-MEL-2 melanoma
UACC-257 melanoma = test system: UACC-257 melanoma

SMILES	TGI (786-0 renal)	TGI (COLO 205 colon)	TGI (HCC-2998 colon)	TGI (HCT-15 colon)	TGI (M14 melanoma)	GI50 (MDA-MB-231 breast)	TGI (MDA-MB-231 breast)	TGI (MDA-N)	GI50 (NCI-H23 lung)	TGI (NCI-H23 lung)	TGI (RPMI-8226 leukemia)	GI50 (SK-MEL-2 melanoma)	TGI (SK-MEL-2 melanoma)	TGI (UACC-257 melanoma)
Cc1ccc(-c2cc(-c3ccco3)c(C#N)c(=S)n2C2OC(CO)C(O)C(O)C2O)cc1 (configuration not stated)	> 100 µM	> 100 µM	> 100 µM	> 100 µM	68.2 µM and 75.7 µM	8.83 µM and 24 µM	35.4 µM and 88.1 µM	> 100 µM	19.7 µM and 51.9 µM	90.4 µM and > 100 µM	> 100 µM and 89.8 µM	39.3 µM and > 100 µM	> 100 µM	> 100 µM
CCOC(=O)N1CCN(Cc2cc(=O)n3ccc(C)cc3n2)CC1	> 100 µM	> 100 µM	> 100 µM	> 100 µM	> 100 µM	–	> 100 µM	> 100 µM	–	> 100 µM	> 100 µM	–	> 100 µM	> 100 µM
CC(=O)/C=C/C1=C(C)CCCC1(C)CC(C)C (configuration not stated)	45.2 µM	> 100 µM	35.7 µM	30.9 µM	> 100 µM	–	> 100 µM	> 100 µM	–	> 100 µM	36 µM	–	43.5 µM	84 µM
CC1=Nc2ccccc2OC(C)=C1N=Nc1ccc2nc(C)[nH]c2c1	> 100 µM	> 100 µM	> 100 µM	> 100 µM	> 100 µM	–	> 100 µM	> 100 µM	–	> 100 µM	> 100 µM	–	> 100 µM	> 100 µM
CCCCOC(=O)Nc1ccc(S(=O)(=O)Nc2ccccc2Cl)cc1	41.8 µM	45.2 µM	27.5 µM	44.9 µM	37.7 µM	–	42 µM	33.8 µM	–	77.7 µM	36.8 µM	–	38.8 µM	98.4 µM
C[C@]12CCC3C4=C(CCC3C1CCC2=O)C(=O)[C@H]1O[C@H]1C4=O (some centres not stated)	3.94 µM	9.23 µM	3.3 µM	2.8 µM	10.2 µM	–	3.64 µM	19.4 µM	–	8.4 µM	4.25 µM	–	26.5 µM	34.1 µM
N#CC(NCc1cccc(CNC(C#N)c2ccccc2)c1)c1ccccc1 (configuration not stated)	> 100 µM	42.6 µM	28.1 µM	66.1 µM	62.2 µM	–	74.2 µM	> 100 µM	–	> 100 µM	65.4 µM	–	> 100 µM	> 100 µM
O=[N+]([O-])c1cc(C=NC23CC4CC(CC(C4)C2)C3)ccc1Cl	41.2 µM	> 70.3 µM	75.1 µM	48.3 µM	26.1 µM	–	24.7 µM	32.3 µM	–	42.8 µM	16.8 µM	–	> 100 µM	39.6 µM
O=C(/C=C/c1ccccc1)C[C@@H](O)C[C@@H]1CC=CC(=O)O1	12 µM	17.8 µM	15.7 µM	25.4 µM	23.5 µM	–	27.5 µM	14.3 µM	–	28.6 µM	> 24.5 µM	–	33.9 µM	31.1 µM
